Data from the supplement of paper PMC10307832.

Experiments:
Test in all cases: relative viability (nuclei count vs DMSO), 5 days (fraction); higher = more cells survive
kb NB 142-70 + Dasatinib = compound: C1CSC2=C(C(=O)N1)SC3=C2C=C(C=C3)O [kb NB 142-70] + Cc1nc(Nc2ncc(C(=O)Nc3c(C)cccc3Cl)s2)cc(N2CCN(CCO)CC2)n1 [Dasatinib] (partner 0.075 µM)
Summary of the method: (§1)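 Relative viability is defined as nuclei in treated wells over nuclei in vehicle wells. Duplicate plates were run and medians reported. Lung cancer cell lines in 1536-well plates were dosed by pin tool one day after seeding, with one drug or with a fixed anchor-drug dose plus five library-drug doses (not always all listed) in √10 steps, and nuclei were counted after 5 days.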

[1] = compound: NCC(=O)Nc1ccc(-n2nc(C(F)(F)F)cc2-c2ccc3c(ccc4ccccc43)c2)cc1 + COc1cccc2cc(-c3nc([C@H]4CC[C@H](C(=O)O)CC4)n4ncnc(N)c34)[nH]c12 [OSI-027] (partner 0.5 µM)
Summary of the method: as §1

[2] = compound: NCC(=O)Nc1ccc(-n2nc(C(F)(F)F)cc2-c2ccc3c(ccc4ccccc43)c2)cc1 + Cc1nc(NC(=O)N2CCC[C@H]2C(N)=O)sc1-c1ccnc(C(C)(C)C(F)(F)F)c1 [Alpelisib] (partner 2 µM)
Summary of the method: as §1

[3] = compound: NCC(=O)Nc1ccc(-n2nc(C(F)(F)F)cc2-c2ccc3c(ccc4ccccc43)c2)cc1 + O=C(CCCCCCC(=O)Nc1ccccc1)NO [Vorinostat] (partner 1 µM)
Summary of the method: as §1

Cell Line	relative viability (kb NB 142-70 + Dasatinib; first compound 0.1 µM)	relative viability (kb NB 142-70 + Dasatinib; first compound 1 µM)	relative viability (kb NB 142-70 + Dasatinib; first compound 3.162 µM)	relative viability ([1]; first compound 0.02 µM)	relative viability ([1]; first compound 0.06325 µM)	relative viability ([1]; first compound 0.2 µM)	relative viability ([1]; first compound 0.6325 µM)	relative viability ([1]; first compound 2 µM)	relative viability ([2]; first compound 0.02 µM)	relative viability ([2]; first compound 0.06325 µM)	relative viability ([2]; first compound 0.2 µM)	relative viability ([2]; first compound 0.6325 µM)	relative viability ([2]; first compound 2 µM)	relative viability ([3]; first compound 0.02 µM)	relative viability ([3]; first compound 0.06325 µM)	relative viability ([3]; first compound 0.2 µM)	relative viability ([3]; first compound 0.6325 µM)	relative viability ([3]; first compound 2 µM)
NCI-H2405	0.205	0.208	0.224	0.634	0.646	0.699	0.642	0.689	0.851	0.826	0.831	0.782	0.923	1.08	1.11	1.1	1.01	1.16
NCI-H1755	0.456	0.425	0.419	0.711	0.68	0.685	0.71	0.759	0.913	0.93	0.917	0.884	0.955	0.758	0.824	0.788	0.768	0.833
HCC-78	0.426	0.388	0.31	0.402	0.375	0.329	0.347	0.41	0.361	0.422	0.376	0.306	0.397	0.398	0.481	0.472	0.466	0.454
LOU-NH91	0.486	0.508	0.556	0.752	0.737	0.711	0.716	0.735	0.789	0.788	0.702	0.775	0.799	0.895	0.977	0.917	0.872	1.01
NCI-H3122	0.803	0.794	0.84	1.04	0.941	0.899	0.98	0.876	0.852	0.847	0.801	0.823	0.746	1.03	0.997	0.995	0.942	0.797
HCC-827	0.265	0.295	0.445	0.771	0.756	0.751	0.745	0.734	1.02	1.08	0.957	0.944	1.02	0.906	0.335	0.876	0.9	0.834
SK-LU-1	0.176	0.163	0.119	0.343	0.358	0.441	0.313	0.374	0.913	1.08	1.3	0.891	0.977	0.804	0.798	0.91	0.71	0.821
NCI-H1975	0.395	0.421	0.364	0.676	0.811	0.772	0.834	0.752	0.668	0.64	0.652	0.677	0.693	0.728	0.729	0.804	0.704	0.747
